Experimental data reported in ChEMBL document CHEMBL6109117, “Synthesis of an RBM39 Degrader That Downregulates CEP192 and Induces Disorganized Spindle Structures” (J Med Chem, 2025).
Values belong to the compound of their own block, whether it stands above or below them. The source made the active and inactive calls. No cut-off for these calls is given here.

Tests used:
K562 [1] = experiment: Induction of spliceosome function impairment in human K562 cells assessed as increase in CUL4A RI transcript incubated for 12 hrs by qRT-PCR analysis; format: functional, cell-based; settings: dose 1-10 µM
K562 [2] = experiment: Induction of spliceosome function impairment in human K562 cells assessed as increase in PRPF38A RI transcript incubated for 12 hrs by qRT-PCR analysis; format: functional, cell-based; settings: dose 1-10 µM
HCT-116 [3] = experiment: Induction of RBM39 degradation in human HCT-116 cells at 0.1 to 1 uM incubated for 24 hrs by Western blot analysis; format: cell-based; settings: dose 0.1-1 µM
HCT-116 [4] = experiment: Effect on RNA splicing in human HCT-116 cells assessed as MCL-1 gene alternative splicing at 2 uM incubated for 12 hrs by RNA-seq analysis; format: functional, cell-based
K562 [5] = experiment: Effect on RNA splicing in human K562 cells assessed as RTTN gene skipping exon at 2 uM incubated for 12 hrs by RNA-seq analysis; format: functional, cell-based
MV4-11 [6] = experiment: Induction of spliceosome function impairment in human MV4-11 cells assessed as decrease in ZNF207 transcript at 1 to 10 uM incubated for 12 hrs by qRT-PCR analysis; format: functional, cell-based; settings: dose 1-10 µM
[7] = Effect on mitosis in human HCT-116 cells assessed as defective mitotic cells at 1 uM incubated for 48 hrs by immunofluorescence based analysis relative to control; format: functional
HCT-116 [8] = experiment: Induction of spliceosome function impairment in human HCT-116 cells assessed as decrease in ZNF207 exon8-exon10 RNA level at 1 to 10 uM incubated for 12 hrs by qRT-PCR analysis; format: functional, cell-based; settings: dose 1-10 µM
HCT-116 [9] = experiment: Induction of RBM39 degradation in human HCT-116 cells assessed as fold change at 1 uM incubated for 24 hrs by Western blot analysis relative to control; format: cell-based
HCT-116 [10] = experiment: Downregulation of RTTN expression in human HCT-116 cells incubated for 24 hrs by Western blot analysis; format: functional, cell-based
HCT-116 [11] = experiment: Effect on RNA splicing in human HCT-116 cells assessed as CEP192 gene exon splicing at 2 uM incubated for 12 hrs by RNA-seq analysis; format: functional, cell-based
[12] = Competitive inhibition of N-terminal His-tagged RBM39 (146 to 326 residues)/DCAF15 (2 to 600 residues)/full-length DDB1 (1 to 1140 residues)(unknown origin) incubated for 1 hr in presence of (R)-N-(3-(N-(3-Cyano-4-methyl-1H-indol-7-yl)sulfamoyl)phenyl)-2-(2-(((6-(3-(3',6'-dihydroxy-3-oxo-3H-spiro[isobenzofuran-1,9'-xanthen]-5-yl)thioureido)hexyl)amino)methyl)pyrrolidin-1-yl)-2-oxoacetamide by fluorescence polarization assay; design: species or system Homo sapiens
MV4-11 [13] = experiment: Induction of spliceosome function impairment in human MV4-11 cells assessed as increase in CUL4A RI transcript incubated for 12 hrs by qRT-PCR analysis; format: functional, cell-based; settings: dose 1-10 µM
[14] = Effect on RNA splicing in human HCT-116 cells assessed as number of skipping exons at 2 uM incubated for 12 hrs by RNA-seq analysis; format: functional
K562 [15] = experiment: Effect on RNA splicing in human K562 cells assessed as KNL1 gene skipping exon at 2 uM incubated for 12 hrs by RNA-seq analysis; format: functional, cell-based
K562 [16] = experiment: Induction of spliceosome function impairment in human K562 cells assessed as increase in NCKAP1L RI transcript incubated for 12 hrs by qRT-PCR analysis; format: functional, cell-based; settings: dose 1-10 µM
HCT-116 [17] = experiment: Downregulation of KNL1 expression in human HCT-116 cells incubated for 24 hrs by Western blot analysis; format: functional, cell-based
[18] = Effect on mitosis in human HCT-116 cells assessed as normal mitotic cells at 1 uM incubated for 48 hrs by immunofluorescence based analysis relative to control; format: functional
HCT-116 [19] = experiment: Effect on RNA splicing in human HCT-116 cells assessed as number of alternative 3' splice sites at 2 uM incubated for 12 hrs by RNA-seq analysis; format: functional
HCT-116 [20] = experiment: Effect on RNA splicing in human HCT-116 cells assessed as KNL1 gene exon splicing at 2 uM incubated for 12 hrs by RNA-seq analysis; format: functional, cell-based
HCT-116 [21] = experiment: Induction of RBM39 degradation in human HCT-116 cells at 0.05 to 5 uM incubated for 24 hrs in presence of MG132 by Western blot analysis; format: cell-based; settings: dose 0.05-5 µM
K562 [22] = experiment: Effect on RNA splicing in human K562 cells assessed as CEP192 gene alternative 3' splicing site at 2 uM incubated for 12 hrs by RNA-seq analysis; format: functional, cell-based
[23] = Effect on RNA splicing in human HCT-116 cells assessed as number of mutually exclusive exons at 2 uM incubated for 12 hrs by RNA-seq analysis; format: functional
HCT-116 [24] = experiment: Effect on RNA splicing in human HCT-116 cells assessed as RTTN gene exon splicing at 2 uM incubated for 12 hrs by RNA-seq analysis; format: functional, cell-based
[25] = Effect on RNA splicing in human HCT-116 cells assessed as number of retention of introns at 2 uM incubated for 12 hrs by RNA-seq analysis; format: functional
K562 [26] = experiment: Induction of spliceosome function impairment in human K562 cells assessed as decrease in NCKAP1L transcript at 1 to 10 uM incubated for 12 hrs by qRT-PCR analysis; format: functional, cell-based; settings: dose 1-10 µM
MV4-11 [27] = experiment: Induction of spliceosome function impairment in human MV4-11 cells assessed as increase in PRPF38A RI transcript incubated for 12 hrs by qRT-PCR analysis; format: functional, cell-based; settings: dose 1-10 µM
MV4-11 [28] = experiment: Induction of spliceosome function impairment in human MV4-11 cells assessed as decrease in CUL4A transcript at 1 to 10 uM incubated for 12 hrs by qRT-PCR analysis; format: functional, cell-based; settings: dose 1-10 µM
HCT-116 [29] = experiment: Induction of apoptosis in human HCT-116 cells assessed as change in caspase-3 level at 0.1 to 5 uM incubated for 48 hrs by Western blot analysis; format: functional, cell-based; settings: dose 0.1-5 µM
K562 [30] = experiment: Effect on RNA splicing in human K562 cells assessed as ESPL1 gene alternative 5' splicing site at 2 uM incubated for 12 hrs by RNA-seq analysis; format: functional, cell-based
HCT-116 [31] = experiment: Induction of cell cycle arrest in human HCT-116 cells assessed as accumulation at G2/M phase at 5 uM incubated for 48 hrs by PI staining based flow cytometry relative to control; format: functional
HCT-116 [32] = experiment: Induction of apoptosis in human HCT-116 cells at 0.1 to 5 uM incubated for 48 hrs by Annexin V-FITC/PI staining based flow cytometry; format: functional, cell-based; settings: dose 0.1-5 µM
K562 [33] = experiment: Induction of spliceosome function impairment in human K562 cells assessed as decrease in CUL4A transcript at 1 to 10 uM incubated for 12 hrs by qRT-PCR analysis; format: functional, cell-based; settings: dose 1-10 µM
HCT-116 [34] = experiment: Downregulation of CEP192 expression in human HCT-116 cells incubated for 24 hrs by Western blot analysis; format: functional, cell-based
HCT-116 [35] = experiment: Induction of RBM39 degradation in human HCT-116 cells incubated for 24 hrs by Western blot analysis; format: cell-based
MV4-11 [36] = experiment: Induction of spliceosome function impairment in human MV4-11 cells assessed as decrease in NCKAP1L transcript at 1 to 10 uM incubated for 12 hrs by qRT-PCR analysis; format: functional, cell-based; settings: dose 1-10 µM
K562 [37] = experiment: Effect on RNA splicing in human K562 cells assessed as CEP192 gene skipping exon at 2 uM incubated for 12 hrs by RNA-seq analysis; format: functional, cell-based
HCT-116 [38] = experiment: Antiproliferative activity against human HCT-116 cells incubated for 4 days by CCK8 assay; format: functional, cell-based; settings: HCT-116, 96 h

- IC50 [12]: 417 nM
- IC50 (HCT-116 [38]): 96.8 nM
SMILES: NS(=O)(=O)c1ccc(S(=O)(=O)Nc2cccc3c(Cl)c[nH]c23)cc1 [INDISULAM]
- Activity (K562 [1]): Active
- Activity (K562 [2]): Active
- Activity (HCT-116 [3]): Active
- Activity (HCT-116 [4]): No effect
- Activity (K562 [5]): Active
- Activity (MV4-11 [6]): Active
- Activity [7]: 18.3%
- Activity (HCT-116 [8]): Active
- fold change (FC) (HCT-116 [9]): 0.16
- Activity (HCT-116 [10]): Dose-dependent-effect
- Activity (HCT-116 [11]): Active
- Activity (MV4-11 [13]): Active
- Activity [14]: 10485
- Activity (K562 [15]): Active
- Activity (K562 [16]): Active
- Activity (HCT-116 [17]): Dose-dependent-effect
- Activity [18]: 1.4%
- Activity (HCT-116 [19]): 836
- Activity (HCT-116 [20]): Active
- Activity (HCT-116 [21]): inactive
- Activity (K562 [22]): Active
- Activity [23]: 667
- Activity (HCT-116 [24]): Active
- Activity [25]: 1378
- Activity (K562 [26]): Active
- Activity (MV4-11 [27]): Active
- Activity (MV4-11 [28]): Active
- Activity (HCT-116 [29]): inactive
- Activity (K562 [30]): Active
- Activity (HCT-116 [31]): 55%
- Activity (HCT-116 [32]): inactive
- Activity (K562 [33]): Active
- Activity (HCT-116 [34]): Dose-dependent-effect
- Activity (HCT-116 [35]): Dose-dependent-effect
- Activity (MV4-11 [36]): Active
- Activity (K562 [37]): Active

- IC50 [12]: 594 nM
- IC50 (HCT-116 [38]): 36.7 nM
SMILES: Cc1ccc(NS(=O)(=O)c2cccc(NC(=O)C(=O)N3CCC[C@@H]3CO)c2)c2[nH]cc(C#N)c12
- Activity (K562 [1]): Active
- Activity (K562 [2]): Active
- Activity (HCT-116 [3]): Active
- Activity (HCT-116 [4]): No effect
- Activity (K562 [5]): Active
- Activity (MV4-11 [6]): Active
- Activity [7]: 21.8%
- Activity (HCT-116 [8]): Active
- fold change (FC) (HCT-116 [9]): 0.21
- Activity (HCT-116 [10]): Dose-dependent-effect
- Activity (HCT-116 [11]): Active
- Activity (MV4-11 [13]): Active
- Activity [14]: 8905
- Activity (K562 [15]): Active
- Activity (K562 [16]): Active
- Activity (HCT-116 [17]): Dose-dependent-effect
- Activity [18]: 0.8%
- Activity (HCT-116 [19]): 745
- Activity (HCT-116 [20]): Active
- Activity (HCT-116 [21]): inactive
- Activity (K562 [22]): Active
- Activity [23]: 515
- Activity (HCT-116 [24]): Active
- Activity [25]: 1098
- Activity (K562 [26]): Active
- Activity (MV4-11 [27]): Active
- Activity (MV4-11 [28]): Active
- Activity (HCT-116 [29]): inactive
- Activity (K562 [30]): Active
- Activity (HCT-116 [31]): 60%
- Activity (HCT-116 [32]): inactive
- Activity (K562 [33]): Active
- Activity (HCT-116 [34]): Dose-dependent-effect
- Activity (HCT-116 [35]): Dose-dependent-effect
- Activity (MV4-11 [36]): Active
- Activity (K562 [37]): Active
